Results taken from patent US8192962B2, “Processes for detecting toxic substances” (Daikin Industries, Ltd., priority 2001, dated 2012).

Tested on: Energy system protein genes
Assay: DNA chip mRNA expression in yeast, energy system protein genes (Table 4)
Format: cell-based, Saccharomyces cerevisiae S288C
How it was run: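 Value is the scanned fluorescence intensity ratio of exposed versus chemical-free cells. Log-phase S288C yeast in YPD at 25° C. received one toxic substance for two hours, dosed to slow growth without killing; Cy3/Cy5-labeled cDNA from oligo-dT-purified mRNA was hybridized to a whole-genome chip at 65° C.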

Measured: The level of expressed mRNA in the presence of chemical substance/The level of expressed mRNA in the absence of chemical substance

CCCCCCCCCCCCc1ccc(S(=O)(=O)[O-])cc1.[Na+] [(17), sodium dodecylbenzosulfonate]
2.2: yeast gene YDL174C
0.5: yeast gene YLR304C, cells incubated two hours with the chemical substance
1.3: yeast gene YCR046C, cells incubated two hours with the chemical substance | yeast gene YCR105W, cells incubated two hours with the chemical substance | yeast gene YGR174C, cells incubated two hours with the chemical substance | yeast gene YGR254W | yeast gene YJR155W | yeast gene YML129C, cells incubated two hours with the chemical substance
1.1: yeast gene YAL060W | yeast gene YDL078C, cells incubated two hours with the chemical substance | yeast gene YDL107W, cells incubated two hours with the chemical substance | yeast gene YDR001C | yeast gene YDR050C, cells incubated two hours with the chemical substance | yeast gene YDR079W, cells incubated two hours with the chemical substance | yeast gene YDR298C, cells incubated two hours with the chemical substance | yeast gene YEL024W, cells incubated two hours with the chemical substance | yeast gene YER178W | yeast gene YGL062W | yeast gene YGR192C | yeast gene YJL121C, cells incubated two hours with the chemical substance | yeast gene YJR009C | yeast gene YJR121W, cells incubated two hours with the chemical substance | yeast gene YKR097W | yeast gene YLL041C, cells incubated two hours with the chemical substance | yeast gene YMR323W, cells incubated two hours with the chemical substance | yeast gene YOL086C, cells incubated two hours with the chemical substance | yeast gene YPL262W, cells incubated two hours with the chemical substance | yeast gene YPL276W, cells incubated two hours with the chemical substance
0.9: yeast gene YBR221C, cells incubated two hours with the chemical substance | yeast gene YGL187C, cells incubated two hours with the chemical substance | yeast gene YGR062C, cells incubated two hours with the chemical substance, 25° C., YPD medium | yeast gene YIR031C, cells incubated two hours with the chemical substance | yeast gene YKL141W, cells incubated two hours with the chemical substance | yeast gene YLR044C, cells incubated two hours with the chemical substance | yeast gene YLR295C, cells incubated two hours with the chemical substance, 25° C., YPD medium | yeast gene YLR377C, cells incubated two hours with the chemical substance | yeast gene YMR267W, cells incubated two hours with the chemical substance, 25° C., YPD medium | yeast gene YOR142W, cells incubated two hours with the chemical substance
1.4: yeast gene YCL040W | yeast gene YFR053C | yeast gene YPL031C, cells incubated two hours with the chemical substance
1.5: yeast gene YDL181W, cells incubated two hours with the chemical substance
9.1: yeast gene YPL088W
2.4: yeast gene YIL160C | yeast gene YNL202W, cells incubated two hours with the chemical substance | yeast gene YPL171C
1.6: yeast gene YFL057C | yeast gene YGR043C | yeast gene YOL165C | yeast gene YPL061W, cells incubated two hours with the chemical substance
0.8: yeast gene YBR185C, cells incubated two hours with the chemical substance | yeast gene YCR012W | yeast gene YGL018C, cells incubated two hours with the chemical substance | yeast gene YKL148C, cells incubated two hours with the chemical substance | yeast gene YKR058W, cells incubated two hours with the chemical substance, 25° C., YPD medium | yeast gene YMR073C, cells incubated two hours with the chemical substance | yeast gene YMR118C | yeast gene YPL240C
2.9: yeast gene YLR284C, cells incubated two hours with the chemical substance
1.0: yeast gene YBL058W, cells incubated two hours with the chemical substance | yeast gene YBR001C, cells incubated two hours with the chemical substance | yeast gene YDR529C, cells incubated two hours with the chemical substance | yeast gene YGR087C, cells incubated two hours with the chemical substance | yeast gene YKL016C, cells incubated two hours with the chemical substance | yeast gene YLR258W, cells incubated two hours with the chemical substance | yeast gene YLR354C, cells incubated two hours with the chemical substance | yeast gene YML120C, cells incubated two hours with the chemical substance | yeast gene YNL071W | yeast gene YNL241C | yeast gene YOR178C, cells incubated two hours with the chemical substance | yeast gene YOR388C, cells incubated two hours with the chemical substance | yeast gene YPL275W, cells incubated two hours with the chemical substance | yeast gene YPR184W, cells incubated two hours with the chemical substance
3.9: yeast gene YGL205W, cells incubated two hours with the chemical substance
1.7: yeast gene YJL166W, cells incubated two hours with the chemical substance | yeast gene YNL331C
0.6: yeast gene YLR134W, cells incubated two hours with the chemical substance | yeast gene YMR205C, cells incubated two hours with the chemical substance
0.7: yeast gene YBL099W, cells incubated two hours with the chemical substance | yeast gene YEL039C, cells incubated two hours with the chemical substance | yeast gene YGL256W, cells incubated two hours with the chemical substance | yeast gene YML087C | yeast gene YMR261C, cells incubated two hours with the chemical substance | yeast gene YPR048W, cells incubated two hours with the chemical substance
1.9: yeast gene YDL021W | yeast gene YGR244C | yeast gene YHR179W | yeast gene YKR009C, cells incubated two hours with the chemical substance
1.2: yeast gene YDL067C, cells incubated two hours with the chemical substance | yeast gene YDR178W, cells incubated two hours with the chemical substance | yeast gene YDR231C | yeast gene YDR377W, cells incubated two hours with the chemical substance | yeast gene YGL191W, cells incubated two hours with the chemical substance | yeast gene YJL052W | yeast gene YJL216C, cells incubated two hours with the chemical substance | yeast gene YJR048W | yeast gene YKL060C, cells incubated two hours with the chemical substance | yeast gene YLR038C, cells incubated two hours with the chemical substance | yeast gene YLR345W | yeast gene YLR395C, cells incubated two hours with the chemical substance
